Columns and labels:
[1] = tested on: Human Herpes Virus 6 (HHV-6); conditions: certain cultured cell lines; cited from earlier work
[2] = Example 7: plasma/blood DMF level in HIV-1 patients treated with DMF dermal patches; assay type: in vivo; conditions: human, blood, topical or ocular, 14000 mg
Description: Two skin patches were applied to different parts of the patient's body, for example to the forearm. […] The gel served to prevent leakage of liquid DMF from the patches. […] For a patient weighing about 60 kg, an amount of about 14 g over a period of 12 hours is required to produce a level of 100 ppm. Based on studies by Marz and Nohova the surface area required to absorb this amount in about 127,2 cm^2. […] Absorption capability varies from patient to patient depending on factors such as skin-type and skin thickness.
(§1) Each patch was applied for a period of 12 hours, either once per week over a period of 12 weeks, or twice per week over a period of 6 weeks.
Daily full clinical and psychological evaluations were also conducted.

[3] = Example 8 pilot study: peak plasma DMF level (GC/MS); assay type: in vivo; conditions: human, topical or ocular
Description: (§2) A pilot study was conducted to evaluate the efficacy of transdermal DMF in the treatment of patients infected with HIV. Informed consent was obtained from each patient. Seropositive status was verified by Western blot using a commercial kit for detecting antibodies to p24 (Abbott Diagnostics) and the presence of HIV-1 was documented by quantitative PCR using a commercial kit (Roche Amplicor).
Operational parameters were as follows: GC temperature program: 60° C. for 1 min. followed by a temperature gradient of 9.4° C./min. for 20 min. MS ionization method: electron impact; mass range: 40-80 mass units; 1 scan/sec; peak threshold: 3 counts/sec; background mass: 69 mass units. A stock solution of dimethylacetamide was used as an internal standard. All samples were extracted with an organic solvent containing the internal standard, allowed to precipitate for 30 min. in a refrigerator, and centrifuged at 3000×g for 5 min. before transfer to GC vials for injection.
(§3) Dermal patches 9 cm in diameter were used within 12 hours of manufacture. […] The patches were visually inspected to verify the absence of leakage and were weighed on an analytical balance to verify less than 10% deviation from a total mass of 8.153 g. The patches were applied to the skin of the forearm and secured with Elastoplast™ bandages. Either one or two patches were used for the initial dose, as determined from the predicted skin transfer rate of 9.4 mg/cm^2 /hr and the patient's body weight.
A staged dose of DMF was used, with two-hourly blood and urine sampling to determine peak plasma DMF levels. […] Initial evaluation included daily determination of: […]

HIV-1 [4] = test: Example 8 pilot study: HIV-1 load by quantitative PCR (Roche Amplicor); assay type: in vivo, human
Description: as §2, §3
(§4) A staged dose of DMF was used, with two-hourly blood and urine sampling to determine peak plasma DMF levels. […] Initial evaluation included daily determination of:
d) Quantitative estimates of HIV-1 load by PCR (Roche Amplicor) and analysis of antibody to p24 (Abbott);

human cancer xenografts = conditions: intraperitoneal injection, nude mice; cited from earlier work
transformed cells = conditions: in vitro, certain transformed cells; cited from earlier work
HIV [5] = conditions: certain cultured cell lines; cited from earlier work
HIV-1 [6] = test: Example 7: HIV-1 viral load by quantitative PCR (Roche amplicor HIV monitor); assay type: in vivo, human; conditions: certain patients; reduction from 120,000; within three weeks, as little as three treatments
Description: as §1
(§5) Blood tests in certain patients indicated an increase in CD4 T-cell counts from 350 to 1000, and a rapid reduction of PCR (Polymerase chain reaction) (viral load) of 120,000 to 500/ml within three weeks with as little as three treatments. […] The PCR test conducted was the Roche amplicor HIV monitor. A viral load of <500/ml plasma is considered to be undetectable.
(§6) A daily virological serology workout to establish total body virus count and to monitor improvements in the immune status of the patient (CD4+ T-helper cells) and prognostic factors were also conducted. The serology workout was based on p24 antigen and quantitative PCR or, optionally, by other methods. A weekly determination of CD4 counts and […] was also conducted specifically to monitor improvements in the patient's immune status and prognosis. All clinical and laboratory data were fed into a centralized data system to facilitate rapid response to any detrimental change so as to curtail treatment to maximize clinical effect and minimize potential side effects.

[7] = water, alcohols and some hydrocarbons; cited from earlier work
CD4 T-cell = test: Example 7: CD4 T-cell counts in blood of HIV-1 patients; assay type: in vivo, human; conditions: certain patients; increase from 350; transdermal DMF
Description: as §1, §5, §6

HIV [8] = test: Example 8 pilot study: clinical condition and Karnofsky performance scale in HIV infected patients; assay type: in vivo, human
Description: as §2, §3, §4
b) clinical checklist and Karnofsky score;
(See Karnofsky et al., […], Cancer 1:634-656). […] Additional anti-microbial therapy for secondary infections was rarely needed. […] Clinical improvement correlated well with disease status as assessed by viral load and CD4+ T cell count.

CD4+ T cell = test: Example 8 pilot study: CD4+ T cell count (Coulter analysis); assay type: in vivo, human
Description: as §2, §3, §4
c) Coulter analysis of CD4+ and CD8+ counts and CD4/CD8 ratio;

[9] = Physicochemical properties of DMF; conditions: gel patches

Question: Which “in vitro replication of HHV-6” value [1] does the source give for `CN(C)C=O` [DMF, N,N'-dimethylformamide] here?
Answer: Its value is “inhibit in vitro replication of HIV and Human Herpes Virus 6 (HHV-6)”.

Question: And the concentration at 12 h [2]?
Answer: The concentration at 12 h was 100 µg/mL.

Question: What about the Cmax ([3]; 3750 mg, Patient 6, two patches once weekly, 6 hours, average weekly dose 3.75 g) of the same molecule?
Answer: The Cmax was 67 µg/mL.

Question: And the Cmax ([3]; 4600 mg, Patient 7, 1 patch, 4 hours, average weekly dose 4.60 g)?
Answer: The Cmax was 100 µg/mL.

Question: And the Cmax ([3]; 6110 mg, Patient 3, two patches once a week, 8 hours, average weekly dose 6.11 g)?
Answer: Its Cmax is 75 µg/mL.

Question: And the Cmax ([3]; 6240 mg, Patient 8, two patches once weekly, 8 hours, average weekly dose 6.24 g)?
Answer: Its Cmax is 130 µg/mL.

Question: What about the Cmax ([3]; 7120 mg, Patient 2, one patch per week, 8 hours, average weekly dose 7.12 g) of the same molecule?
Answer: Its Cmax is 125 µg/mL.

Question: And the Cmax ([3]; 7330 mg, Patient 4, two patches once weekly, 8 hours, average weekly dose 7.33 g)?
Answer: The Cmax was 90 µg/mL.

Question: What about the Cmax ([3]; 8250 mg, Patient 5, two patches weekly, 8 hours, average weekly dose 8.25 g) of the same molecule?
Answer: Its Cmax is 110 µg/mL.

Question: And the Cmax ([3]; 8970 mg, Patient 1, two patches once a week, 8 hours, average weekly dose 8.97 g)?
Answer: The Cmax was 121 µg/mL.

Question: And the PCR-measured viral load (HIV-1 [4]; Patient 1, after 7 weeks, from 222,000)?
Answer: Its PCR-measured viral load is 160,000 copies/ml.

Question: What about the PCR-measured viral load (HIV-1 [4]; Patient 2, after 9 weeks, from 29,000) of the same molecule?
Answer: Its PCR-measured viral load is 13,000 copies/ml.

Question: What about the PCR-measured viral load (HIV-1 [4]; Patient 3, after 9 weeks, from 250,000) of the same molecule?
Answer: Its PCR-measured viral load is 50,000 copies/ml.

Question: What about the PCR-measured viral load (HIV-1 [4]; Patient 4, after 18 weeks, from 13,000) of the same molecule?
Answer: The PCR-measured viral load was 4,000 copies/ml.

Question: What about the PCR-measured viral load (HIV-1 [4]; Patient 5, after 19 weeks, from 120,000) of the same molecule?
Answer: Its PCR-measured viral load is 24,000 copies/ml.

Question: And the PCR-measured viral load (HIV-1 [4]; Patient 6, after 5 weeks, from 156,000)?
Answer: The PCR-measured viral load was 13,000 copies/ml.

Question: What about the PCR-measured viral load (HIV-1 [4]; Patient 7, after 9 treatments, initial 1,156,000) of the same molecule?
Answer: Its PCR-measured viral load is 9,000 copies/ml.

Question: What about the PCR-measured viral load (HIV-1 [4]; Patient 8, after 8 weeks, from 1,200,000) of the same molecule?
Answer: The PCR-measured viral load was 250,000 copies/ml.

Question: And the “decline in PCR-measured viral load” value (HIV-1 [4]; after 42 days, Gompertz curve fit, five out of eight patients)?
Answer: Its value is 88.8%.

Question: And the “growth of human cancer xenografts” value (human cancer xenografts)?
Answer: The value was “slow the growth of certain human cancer xenografts”.

Question: And the differentiation (transformed cells)?
Answer: Its differentiation is “in vitro differentiating agent”.

Question: And the “in vitro replication of HIV” value (HIV [5])?
Answer: The value was “inhibit in vitro replication of HIV”.

Question: What about the PCR viral load (HIV-1 [6]) of the same molecule?
Answer: Its PCR viral load is 500 mL⁻¹.

Question: What about the miscibility [7] of the same molecule?
Answer: The miscibility was “freely miscible with water, alcohols and some hydrocarbons”.

Question: And the “CD4 T-cell count” value (CD4 T-cell)?
Answer: Its value is 1000.

Question: What about the “need for additional anti-microbial therapy for secondary infections” value (HIV [8]; 8 patients) of the same molecule?
Answer: The value was “rarely needed”.

Question: And the “neurological symptoms and Herpes viral infections” value (HIV [8]; 8 patients)?
Answer: The value was “Improvement in neurological symptoms and Herpes viral infections was remarkable”.

Question: What about the “general condition, Karnofsky performance scale” value (HIV [8]; 8 patients, before and after treatment (FIG. 4)) of the same molecule?
Answer: The value was “every patient showed improved general condition”.

Question: What about the clinical outcome (HIV [8]; Patient 1, after 7 weeks) of the same molecule?
Answer: Its clinical outcome is “appetite had improved, the respiratory difficulties had resolved, the patient appeared clinically well and started exercising again”.

Question: What about the clinical outcome (HIV [8]; Patient 2, after 9 weeks) of the same molecule?
Answer: The clinical outcome was “herpetic sores had resolved, the limb pains had disappeared and the patient appeared clinically well”.

Question: What about the clinical outcome (HIV [8]; Patient 3, after 10 weeks) of the same molecule?
Answer: The clinical outcome was “the patient was clinically well and no longer complained of pain in the limbs”.

Question: What about the clinical outcome (HIV [8]; Patient 4, after 18 weeks) of the same molecule?
Answer: Its clinical outcome is “The patient appeared clinically well and had no active medical complaints”.

Question: What about the clinical outcome (HIV [8]; Patient 5, after 19 weeks) of the same molecule?
Answer: Its clinical outcome is “The secondary infections had resolved and the patient appeared clinically well”.

Question: What about the clinical outcome (HIV [8]; Patient 6, after 5 weeks) of the same molecule?
Answer: Its clinical outcome is “The patient was clinically well”.

Question: What about the clinical outcome (HIV [8]; Patient 7, after 9 treatments) of the same molecule?
Answer: The clinical outcome was “The patient felt well and had returned to full-time employment”.

Question: What about the clinical outcome (HIV [8]; Patient 8, after 8 weeks) of the same molecule?
Answer: The clinical outcome was “the Herpes lesions had entirely resolved”.

Question: And the clinical improvement (HIV [8]; after 2-3 weeks of treatment)?
Answer: Its clinical improvement is “Virtually all patients showed clinical improvement”.

Question: And the “general fatigue and appetite” value (HIV [8]; within the first 14 days of DMF treatment)?
Answer: The value was “marked improvement in general fatigue and in appetite”.

Question: And the “CD4+ T cell count” value (CD4+ T cell; Patient 1, after 7 weeks, from 39)?
Answer: The value was 138 cells/μl.

Question: What about the “CD4+ T cell count” value (CD4+ T cell; Patient 2, after 9 weeks, from 460) of the same molecule?
Answer: The value was 720 cells/μl.

Question: And the “CD4+ T cell count” value (CD4+ T cell; Patient 3, after 9 weeks, from 140)?
Answer: The value was 640 cells/μl.

Question: What about the “CD4+ T cell count” value (CD4+ T cell; Patient 4, after 18 weeks, from 249) of the same molecule?
Answer: The value was 450 cells/μl.

Question: What about the “CD4+ cell count” value (CD4+ T cell; Patient 5, after 19 weeks, from 260) of the same molecule?
Answer: Its value is 450 cells/μl.

Question: And the “CD4+ T cell count” value (CD4+ T cell; Patient 6, after 5 weeks, from 354)?
Answer: Its value is 396 cells/μl.

Question: What about the “CD4+ T cell count” value (CD4+ T cell; Patient 7, after 9 treatments, initial 29) of the same molecule?
Answer: Its value is 35 cells/μl.

Question: What about the “CD4+ T cell count” value (CD4+ T cell; Patient 7, after the first treatment, initial 29) of the same molecule?
Answer: Its value is 14 cells/μl.

Question: What about the “CD4+ T cell count” value (CD4+ T cell; Patient 8, after 8 weeks, from 200) of the same molecule?
Answer: The value was 240 cells/μl.

Question: And the “increase in CD4+ T cell counts” value (CD4+ T cell; after 42 days, Gompertz curve fit, seven out of eight patients)?
Answer: The value was 73.4%.

Question: What about the evaporation [9] of the same molecule?
Answer: Its evaporation is “evaporates rapidly”.

Reference: US5935597A, “Drug delivery devices and methods for treatment of viral and microbial infections and wasting syndromes” (Cryopreservation Technologies CC, priority 1995, dated 1999)
